Experiments:
Assay in all cases: Post-emergence test on weeds (greenhouse, spray at 2-3 leaf stage)
Format in all cases: in vivo
Set-up in all cases: key: Level 10: completely dead; Level 9: growth control rate greater than or equal to 90% and less than 100%; Level 8: growth control rate greater than or equal to 80% and less than 90%; Level 7: growth control rate greater than or equal to 70% and less than 80%; Level 6: growth control rate greater than or equal to 60% and less than 70%; Level 5: growth control rate greater than or equal to 50% and less than 60%; Level 4: growth control rate greater than or equal to 40% and less than 50%; Level 3: growth control rate greater than or equal to 30% and less than 40%; Level 2: growth control rate greater than or equal to 20% and less than 30%; Level 1: growth control rate less than 20%; Level 0: no effect
Settings in all cases: 60 g a.i./ha, 3 weeks after application
[1] = tested on: Abutilon theophrasti
From the text: (§1) The activity level criteria for plant damage (i.e., growth control rate) are as follows: • Level 10: completely dead; • Level 9: growth control rate greater than or equal to 90% and less than 100%; • Level 8: growth control rate greater than or equal to 80% and less than 90%; • Level 7: growth control rate greater than or equal to 70% and less than 80%; • Level 6: growth control rate greater than or equal to 60% and less than 70%; • Level 5: growth control rate greater than or equal to 50% and less than 60%; • Level 4: growth control rate greater than or equal to 40% and less than 50%; • Level 3: growth control rate greater than or equal to 30% and less than 40%; • Level 2: growth control rate greater than or equal to 20% and less than 30%; • Level 1: growth control rate less than 20%; • Level 0: no effect.
(§2) The above growth control rates are fresh weight control rates.
(§3) Monocotyledonous and dicotyledonous weed seeds (Descurainia sophia, Capsella bursa-pastoris, Abutilon theophrasti, Galium spurium, Stellaria media, Lithospermum arvense, Rorippa indica, Alopecurus aequalis, Alopecurus japonicus, Eleusine indica, Beckmannia syzigachne, Sclerochloa dura, Erigeron canadensis, Phleum paniculatum, Veronica polita, Bromus japonicus, Aegilops tauschii, Phalaris arundinacea, Amaranthus retrofexus, Chenopodium, Commelina communis, Cichorium endivia, Convolvulus arvensis, Cirsium arvense, Solanum nigrum, Acalypha australis, Digitaria sanguinalis, Echinochloa crus-galli, Setaria viridis, Setaa pumila, Lepochloa chinensis, Monochona vaginalis, Sagitta trifolia, Schoenoplectiella juncoides, Cypenus rotundus, Cyperus ira, Cyperus difformis, Fimbristylis, Portulaca oleracea, Xanthium sibiricum, Ipomoea nil, Eschenbachia japonica, etc.) and major crop seeds (wheat, maize, paddy rice, soybean, cotton, oilseed rape, millet, sorghum, potato, sesame, castor plant, etc.) were placed in plastic pots filled with soil and then covered with 0.5-2 cm of soil to allow them to grow in a favorable greenhouse environment. Two weeks after sowing, the test plants were treated at the stage of 2-3 leaves. The test compounds of the present invention were individually dissolved with acetone, then added with Tween® 80, with 1.5 L/ha of methyl oleate emulsifiable concentrate as a synergist, diluted into solutions of certain concentrations using certain amount of water, and sprayed to the plants using a spray tower. After drug application, the experimental results on weeds were collected after 3 weeks of cultivation in a greenhouse. The compounds were applied at 500, 250, […], 15, and 7.5 g a.i./ha in triplicate, and the results were averaged.

[2] = tested on: Amaranthus retroflexus
From the text: as §1, §2, §3

[3] = tested on: Digitaria sanguinalis
From the text: as §1, §2, §3

[4] = tested on: Echinochloa crus-galli
From the text: as §1, §2, §3

[5] = tested on: Setaria viridis
From the text: as §1, §2, §3

[6] = tested on: Veronica polita
From the text: as §1, §2, §3

CC1(C(=O)OCc2ccccc2F)ON=C(c2cc(-c3ncc(C(F)(F)F)cc3Cl)c(F)cc2Cl)O1 (racemic) [Compound 133]
10: activity level (fresh weight growth control rate), Abutilon theophrasti [1] | activity level (fresh weight growth control rate), Amaranthus retroflexus [2] | activity level (fresh weight growth control rate), Digitaria sanguinalis [3] | activity level (fresh weight growth control rate), Echinochloa crus-galli [4] | activity level (fresh weight growth control rate), Setaria viridis [5] | activity level (fresh weight growth control rate), Veronica polita [6]

CC(C)=NOC(=O)C1(C)ON=C(c2cc(-c3ncc(C(F)(F)F)cc3Cl)c(F)cc2Cl)O1 (racemic) [Compound 137]
10: activity level (fresh weight growth control rate), Abutilon theophrasti [1] | activity level (fresh weight growth control rate), Amaranthus retroflexus [2] | activity level (fresh weight growth control rate), Digitaria sanguinalis [3] | activity level (fresh weight growth control rate), Echinochloa crus-galli [4] | activity level (fresh weight growth control rate), Setaria viridis [5] | activity level (fresh weight growth control rate), Veronica polita [6]

CC(=NOC(=O)C1(C)ON=C(c2cc(-c3ncc(C(F)(F)F)cc3Cl)c(F)cc2Cl)O1)C(F)(F)F (racemic) [Compound 139]
10: activity level (fresh weight growth control rate), Abutilon theophrasti [1] | activity level (fresh weight growth control rate), Amaranthus retroflexus [2] | activity level (fresh weight growth control rate), Digitaria sanguinalis [3] | activity level (fresh weight growth control rate), Echinochloa crus-galli [4] | activity level (fresh weight growth control rate), Setaria viridis [5] | activity level (fresh weight growth control rate), Veronica polita [6]

CCOC(C)=NOC(=O)C1(C)ON=C(c2cc(-c3ncc(C(F)(F)F)cc3Cl)c(F)cc2Cl)O1 (racemic) [Compound 141]
10: activity level (fresh weight growth control rate), Abutilon theophrasti [1] | activity level (fresh weight growth control rate), Amaranthus retroflexus [2] | activity level (fresh weight growth control rate), Digitaria sanguinalis [3] | activity level (fresh weight growth control rate), Echinochloa crus-galli [4] | activity level (fresh weight growth control rate), Setaria viridis [5] | activity level (fresh weight growth control rate), Veronica polita [6]

CC1(C(=O)ON=Cc2ccco2)ON=C(c2cc(-c3ncc(C(F)(F)F)cc3Cl)c(F)cc2Cl)O1 (racemic) [Compound 143]
10: activity level (fresh weight growth control rate), Abutilon theophrasti [1] | activity level (fresh weight growth control rate), Amaranthus retroflexus [2] | activity level (fresh weight growth control rate), Digitaria sanguinalis [3] | activity level (fresh weight growth control rate), Echinochloa crus-galli [4] | activity level (fresh weight growth control rate), Setaria viridis [5] | activity level (fresh weight growth control rate), Veronica polita [6]

Cc1ccc(C=NOC(=O)C2(C)ON=C(c3cc(-c4ncc(C(F)(F)F)cc4Cl)c(F)cc3Cl)O2)s1 (racemic) [Compound 144]
10: activity level (fresh weight growth control rate), Abutilon theophrasti [1] | activity level (fresh weight growth control rate), Amaranthus retroflexus [2] | activity level (fresh weight growth control rate), Digitaria sanguinalis [3] | activity level (fresh weight growth control rate), Echinochloa crus-galli [4] | activity level (fresh weight growth control rate), Setaria viridis [5] | activity level (fresh weight growth control rate), Veronica polita [6]

CC1(C(=O)ON=C2CCCC2)ON=C(c2cc(-c3ncc(C(F)(F)F)cc3Cl)c(F)cc2Cl)O1 (racemic) [Compound 145]
10: activity level (fresh weight growth control rate), Abutilon theophrasti [1] | activity level (fresh weight growth control rate), Amaranthus retroflexus [2] | activity level (fresh weight growth control rate), Digitaria sanguinalis [3] | activity level (fresh weight growth control rate), Echinochloa crus-galli [4] | activity level (fresh weight growth control rate), Setaria viridis [5] | activity level (fresh weight growth control rate), Veronica polita [6]

CC1(C(=O)ON=C(c2ccccc2)c2ccccc2)ON=C(c2cc(-c3ncc(C(F)(F)F)cc3Cl)c(F)cc2Cl)O1 (racemic) [Compound 146]
10: activity level (fresh weight growth control rate), Abutilon theophrasti [1] | activity level (fresh weight growth control rate), Amaranthus retroflexus [2] | activity level (fresh weight growth control rate), Digitaria sanguinalis [3] | activity level (fresh weight growth control rate), Echinochloa crus-galli [4] | activity level (fresh weight growth control rate), Setaria viridis [5] | activity level (fresh weight growth control rate), Veronica polita [6]

Cc1cc(C)n(C(=O)C2(C)ON=C(c3cc(-c4ncc(C(F)(F)F)cc4Cl)c(F)cc3Cl)O2)n1 (racemic) [Compound 156]
10: activity level (fresh weight growth control rate), Abutilon theophrasti [1] | activity level (fresh weight growth control rate), Amaranthus retroflexus [2] | activity level (fresh weight growth control rate), Digitaria sanguinalis [3] | activity level (fresh weight growth control rate), Echinochloa crus-galli [4] | activity level (fresh weight growth control rate), Setaria viridis [5] | activity level (fresh weight growth control rate), Veronica polita [6]

CC(=NOC(=O)C1(C)ON=C(c2cc(-c3ncc(C(F)(F)F)cc3Cl)c(F)cc2Cl)O1)C1CC1 (racemic) [Compound 172]
10: activity level (fresh weight growth control rate), Abutilon theophrasti [1] | activity level (fresh weight growth control rate), Amaranthus retroflexus [2] | activity level (fresh weight growth control rate), Digitaria sanguinalis [3] | activity level (fresh weight growth control rate), Echinochloa crus-galli [4] | activity level (fresh weight growth control rate), Setaria viridis [5] | activity level (fresh weight growth control rate), Veronica polita [6]

Reference: patent US20250206727A1, “HETEROCYCLIC SUBSTITUTED AROMATIC COMPOUND, PREPARATION METHOD THEREFOR, HERBICIDAL COMPOSITION AND APPLICATION” (QINGDAO KINGAGROOT CHEMICAL COMPOUND CO., LTD., priority 2022, published 2025)
